Columns and labels:
Conditions in all cases: 72 h
Caco-2 [1] = assay: cell viability relative to DMSO; higher = less toxic
Calu-3 [2] = assay: as above
HepG2 [3] = assay: as above
U2OS [4] = assay: as above
Vero E6 [5] = assay: as above
Caco-2 [6] = assay: relative viability EC50 (midpoint between 100% and the lowest measured viability); higher = less toxic
Calu-3 [7] = assay: as above
HepG2 [8] = assay: as above
U2OS [9] = assay: as above
Vero E6 [10] = assay: as above
Caco-2 [11] = assay: drug sensitivity score (DSS) for viability; higher = more toxic; extreme values may be limits of the assay
Calu-3 [12] = assay: as above
HepG2 [13] = assay: as above
U2OS [14] = assay: as above
Vero E6 [15] = assay: as above

Structure (SMILES) | cell viability (Caco-2 [1]; 1 nM) | cell viability (Caco-2 [1]; 10 nM) | cell viability (Caco-2 [1]; 100 nM) | cell viability (Caco-2 [1]; 1000 nM) | cell viability (Caco-2 [1]; 10000 nM) | cell viability (Calu-3 [2]; 1 nM) | cell viability (Calu-3 [2]; 10 nM) | cell viability (Calu-3 [2]; 100 nM) | cell viability (Calu-3 [2]; 1000 nM) | cell viability (Calu-3 [2]; 10000 nM) | cell viability (HepG2 [3]; 1 nM) | cell viability (HepG2 [3]; 10 nM) | cell viability (HepG2 [3]; 100 nM) | cell viability (HepG2 [3]; 1000 nM) | cell viability (HepG2 [3]; 10000 nM) | cell viability (U2OS [4]; 1 nM) | cell viability (U2OS [4]; 10 nM) | cell viability (U2OS [4]; 100 nM) | cell viability (U2OS [4]; 1000 nM) | cell viability (U2OS [4]; 10000 nM) | cell viability (Vero E6 [5]; 1 nM) | cell viability (Vero E6 [5]; 10 nM) | cell viability (Vero E6 [5]; 100 nM) | cell viability (Vero E6 [5]; 1000 nM) | cell viability (Vero E6 [5]; 10000 nM) | relative viability EC50 (Caco-2 [6]) | relative viability EC50 (Calu-3 [7]) | relative viability EC50 (HepG2 [8]) | relative viability EC50 (U2OS [9]) | relative viability EC50 (Vero E6 [10]) | drug sensitivity score (Caco-2 [11]) | drug sensitivity score (Calu-3 [12]) | drug sensitivity score (HepG2 [13]) | drug sensitivity score (U2OS [14]) | drug sensitivity score (Vero E6 [15])
CCCCCCCCCCCC[N+](C)(C)CCOc1ccccc1 [domiphen] | 85.6% | 99.3% | 95% | 101% | 11.1% | 90.9% | 92.7% | 91.5% | 102% | 26.8% | 103% | 95.3% | 100% | 94% | 30% | 93.6% | 102% | 94.9% | 95.7% | 9.5% | 100% | 98.8% | 96.6% | 93% | 83.8% | 3.22 µM | 3.31 µM | 2.46 µM | 2.8 µM | > 10 µM | 4.9 | 3.9 | 4.8 | 5.6 | 0.5
COc1ccccc1N1CCN(CC(O)COc2cc(OC)c(OC)c(OC)c2)CC1 (stereo not given) [enciprazine] | 104% | 97.9% | 89.3% | 93.8% | 99.8% | 101% | 106% | 100% | 98.1% | 105% | 98.3% | 99.9% | 91.4% | 94.2% | 96% | 94.9% | 98.2% | 95.1% | 96% | 94.9% | 100% | 101% | 101% | 99.1% | 99.4% | > 10 µM | > 10 µM | > 10 µM | > 10 µM | > 10 µM | 0 | 0 | 0 | 0 | 0
CCCCCCCCCCCCCCCCCCCCCC(=O)Nc1ccn([C@@H]2O[C@H](CO)[C@@H](O)[C@@H]2O)c(=O)n1 [enocitabine] | 78.8% | 67.8% | 90.5% | 114% | 92.3% | 99.2% | 99% | 104% | 94.9% | 95.7% | 98% | 102% | 100% | 112% | 79.2% | 94.1% | 95.2% | 95.4% | 93.6% | 102% | 95.6% | 97.2% | 91.9% | 94% | 107% | > 10 µM | > 10 µM | > 10 µM | > 10 µM | > 10 µM | 0 | 0 | 0.4 | 0 | 0
CCn1cnc(C(=O)NC)c1C(=O)NC [ethimizol] | 97.5% | 104% | 91.5% | 99.1% | 92.3% | 102% | 92.4% | 91.3% | 102% | 99.1% | 89.3% | 114% | 103% | 104% | 111% | 98.6% | 102% | 98.1% | 98.2% | 94.9% | 96.4% | 96.2% | 96.4% | 99.9% | 100% | > 10 µM | > 10 µM | > 10 µM | > 10 µM | > 10 µM | 0 | 0 | 0 | 0 | 0
Cc1cc(C#N)cc(C)c1Oc1nc(Nc2ccc(C#N)cc2)nc(N)c1Br [etravirine] | 94% | 93.7% | 97.2% | 105% | 102% | 94.3% | 95.8% | 95.7% | 96.5% | 103% | 110% | 101% | 92.3% | 99.8% | 102% | 103% | 95.2% | 97.2% | 95.2% | 95.3% | 97.5% | 97.9% | 95.7% | 105% | 107% | > 10 µM | > 10 µM | > 10 µM | > 10 µM | > 10 µM | 0 | 0 | 0 | 0 | 0
N#Cc1ccc(C2CCCc3cncn32)cc1 (stereo not given) [fadrozole] | 77.9% | 87.4% | 89.6% | 92.6% | 82.3% | 91.1% | 103% | 96.6% | 98% | 95.3% | 96.9% | 100% | 91.6% | 103% | 96.2% | 96.2% | 91.4% | 96.4% | 93.4% | 97.4% | 95.4% | 95.6% | 89.1% | 94.9% | 95.2% | > 10 µM | > 10 µM | > 10 µM | > 10 µM | > 10 µM | 0 | 0 | 0 | 0 | 0

Reference: the supplement of paper PMC13380429
